{"source": "patent US5545719A", "about": "“Nerve growth peptides” (Neuromedica, Inc., priority 1994, dated 1996)", "key": {"[1]": {"tested_on": "NB2a/d1 cells", "experiment": "Neurite sprouting assay (RSE), NB2a/d1 cells", "format": "cell-based, mouse", "details": "24 hrs in culture", "procedure": "(§1) Two cell lines were used. The mouse neuroblastoma cell line NB2a/dl was grown to confluency in P/100 plastic plates in the presence of Delbecco's medium with 10% fetal calf serum at 36.5° C. in a 5% CO2 atmosphere. Shea, T. B. et al., Dev. Brain Res., 21:307-314 (1985). An adrenergic mouse cell line based on PC12 pheochromocytoma cells was grown on collagen-coated culture plates using 85% RPMI 1640 and 10% heat-inactivated horse serum as the growth medium. Greene, L. A. et al., Proc. Natl. Acad. Sci. USA, 73:2424-2428 (1976). Cultures were grown in P-100 plates from an initial plating of 10^5 cells/ml under sterile conditions using 10 ml of incubation medium. Experimental cultures received a given concentration of protein fragment in 1 ml of serum-free medium. Control cultures received no fragment. Equal numbers of test and control plates were incubated at 35.5° C. in a 95%/5% air/CO2 humified atmosphere, and then examined for neurite growth patterns at 18, 24 and 48 hr after the plating in a phase microscope at a magnification of 100 or 200 ×, as specified.\nThe test to determine the degree of sprouting was carried out blind to determine (1) the total number of cells present in a given field of observation and (2) the percent of these that have zero and one or two or more process. Twelve microscope fields, each containing 50-100 cells, were randomly selected in each plate and cells counted according to the categories described above. The data for 12 fields in each of two plates for each added protein fragment were combined to obtain an analysis of the percent sprouting (i.e. the % of cells that have one or more processes after 24 hr in culture) for each protein fragment. The ratio, % sprouting in experimental cultures/% sprouting in control cultures, is an index of the \"relative sprouting effect\" (RSE) of a protein fragment."}, "[2]": {"tested_on": "NB2a/dl cells", "experiment": "Neurite elongation assay (REE), NB2a/dl cells", "format": "cell-based, mouse", "details": "Conc. 1000 μM, 24 hrs in culture", "procedure": "as §1, with “Equal numbers of test and control plates were incubated at 35.5° C. in a 95%/5% air/CO2 humified atmosphere, and then examined for neurite growth patterns at 18, 24 and 48 hr after the plating in a phase microscope at a magnification of 100 or 200 ×, as specified.” left out\n(§2) In each of the twelve microscope fields, the length of nerve cell processes (minimum length: 0.5 times the cell body length) was also measured to determine the percentage of nerve elongation after 24 hr. The percentage of total cells that developed a longest process equal to its cell body length was calculated according to the formula in Table V, supra. […]"}, "[3]": {"tested_on": "PC12 cells", "experiment": "Neurite elongation assay (REE), PC12 cells", "format": "cell-based, mouse", "procedure": "as §1, with “Equal numbers of test and control plates were incubated at 35.5° C. in a 95%/5% air/CO2 humified atmosphere, and then examined for neurite growth patterns at 18, 24 and 48 hr after the plating in a phase microscope at a magnification of 100 or 200 ×, as specified.” left out\nas §2"}, "[4]": {"tested_on": "PC12 cells", "experiment": "Neurite sprouting assay (RSE), PC12 cells", "format": "cell-based, mouse", "details": "Conc. .07 μM, 24 hrs in culture", "procedure": "as §1, with “Equal numbers of test and control plates were incubated at 35.5° C. in a 95%/5% air/CO2 humified atmosphere, and then examined for neurite growth patterns at 18, 24 and 48 hr after the plating in a phase microscope at a magnification of 100 or 200 ×, as specified.” left out\nThe test to determine the degree of sprouting was carried out blind to determine (1) the total number of cells present in a given field of observation and (2) the percent of these that have zero and one or two or more process. Twelve microscope fields, each containing 50-100 cells, were randomly selected in each plate and cells counted according to the categories described above. […]"}, "[5]": {"experiment": "Solubility observations", "format": "physicochemical", "details": "physiological pH values"}}, "note": "Peptide text beside a SMILES is read from it."}
{"compound": "CCCC(=O)Nc1ncnc2c1ncn2[C@@H]1O[C@@H]2COP(=O)(O)O[C@H]2[C@H]1OC(=O)CCC", "note": "[dibutyryl cyclic AMP, reference compound]", "values": [{"measurement": "RSE (relative sprouting effect)", "setting": "[1]; Conc. 1000 (μm)", "value": 1.7}, {"measurement": "REE (neurite elongation)", "setting": "[2]", "value": 2.58}]}
{"compound": "Nerve growth factor", "values": [{"measurement": "RSE (relative sprouting effect)", "setting": "[1]; Conc. 0.03 (μm)", "value": "1.76 ± .034"}, {"measurement": "RSE (relative sprouting effect)", "setting": "[1]; Conc. .07 (μm)", "value": "1.76 ± .07"}, {"measurement": "REE (neurite elongation)", "setting": "[3]; Conc. .03 μM, 24 hrs in culture", "value": 3.30}, {"measurement": "effect on neurite elongation, result in words", "setting": "[3]; Table IV", "value": "most significant effects"}, {"measurement": "RSE (relative sprouting effect)", "setting": "[4]", "value": 2.9}]}
{"compound": "CC(C)C[C@H](NC(=O)[C@@H](NC(=O)[C@H](CCC(=O)O)NC(=O)[C@H](CCCCN)NC(=O)[C@@H](N)CCCCN)[C@@H](C)O)C(=O)N[C@@H](CCC(N)=O)C(=O)N[C@@H](Cc1ccccc1)C(=O)N[C@@H](CCCNC(=N)N)C(=O)O", "note": "[compound 8933, Lys Lys Glu Thr Leu Gln Phe Arg] (H-KKETLQFR-OH)", "values": [{"measurement": "solubility in saline", "setting": "[5]", "value": "highly soluble"}]}
